# Read-outs that look alike come from different tables or passages of the source. Ends that are not written are not given here. Peptide text beside a SMILES is read from it. * marks the point of attachment. X2 = NC[C@@H]1O[C@H](O[C@H]2[C@@H](O)[C@H](O[C@@H]3[C@@H](O)[C@H](N)C[C@H](N)[C@H]3O[C@H]3O[C@H](CN)[C@@H](O)[C@H](O)[C@H]3N)O[C@@H]2CS*)[C@H](N)[C@@H](O)[C@@H]1O
# Key:
# E. coli K12 MG1655 [1] = experiment: microbe, parasite or virus in culture; format: cell-based, Escherichia coli; details: MIC wells diluted 10-, 100-, 1000-times in fresh MHB, 24 h, 37 °C, bactericidal if no growth at 100- and 1000-times dilutions
# Experimental: (§1) The antibacterial activity of the conjugates was assessed by determining their minimum inhibitory concentration (MIC) and minimum bactericidal concentration (MBC) against Gram-negative E. coli (K12 MG 1655 and WR 3551/98) and Gram-positive S. aureus (ATCC 29213 and ATCC BAA1720 MRSA) strains (Table 1, Figures S16–S23).
# (§2) The MBC values were determined by diluting wells from the MIC experiment plate in fresh MHB medium. Dilutions of 10-, 100-, and 1000-times were prepared for the MIC well and up to two-folds higher than MIC concentrations of a given compound. Dilutions were made on a transparent flat-bottom 96-well plate (Nest), which was then sealed and incubated for 24 h, at 37 °C with shaking. The growth of a given sample well was compared with GC and SC controls.
# E. coli WR 3551/98 [2] = experiment: microbe, parasite or virus in culture; format: cell-based, Escherichia coli; details: 24 h, 37 °C
# Experimental: as §1, §2
# E. coli K12 MG1655 [3] = experiment: microbe, parasite or virus in culture; format: cell-based, Escherichia coli; details: MHB, 20 h, 37 °C with shaking, OD600, at least two biological replicates of two technical replicates
# Experimental: as §1
# (§3) The MIC values were determined as follows. Bacteria were first cultured overnight in 2 mL of lysogeny broth (LB, VWR Chemicals) at 37 °C with shaking. Next, 20 μL of overnight culture was transferred into 2 mL of […] (MHB, Difco) medium and further cultured at 37 °C with shaking until the culture reached OD600 = 0.3. Subsequently, the culture was diluted 1:100 in a fresh MHB medium, and aliquots of 50 μL were mixed with 50 μL of previously prepared dilutions of the tested compound in MHB on a transparent flat-bottom 96-well plate (Nest). The plate was then sealed with transparent foil (Titer-Tops) and incubated for 20 h, at 37 °C with shaking. Following incubation, optical density at 600 nm was measured using a Tecan Sunrise plate reader. Growth inhibition was determined by comparing the given sample with untreated culture (growth control—GC) with MHB alone (sterility control—SC) as an additional reference. The experiment was conducted in at least two biological replicates of two technical replicates each. Statistical significance was determined by the two-way ANOVA test using GraphPad Prism 9 software.
# E. coli WR 3551/98 [4] = experiment: microbe, parasite or virus in culture; format: cell-based, Escherichia coli; details: for MIC: E. coli WR 3551/98 (AMK-resistant), MHB, 20 h, 37 °C with shaking, OD600
# Experimental: as §1, §3
# S. aureus ATCC 29213 [5] = experiment: microbe, parasite or virus in culture; format: cell-based, Staphylococcus aureus; details: 20 h, 37 °C with shaking, OD600
# Experimental: as §1, §3
# [6] = system: S. aureus ATCC BAA1720 MRSA; experiment: microbe, parasite or virus in culture; format: cell-based, Staphylococcus aureus; details: S. aureus ATCC BAA1720 MRSA (NEO-resistant), MHB, 20 h, 37 °C with shaking, OD600
# Experimental: as §1, §3
# S. aureus ATCC 29213 [7] = experiment: microbe, parasite or virus in culture; format: cell-based, Staphylococcus aureus; details: 24 h, 37 °C
# Experimental: as §1, §2
# [8] = system: S. aureus ATCC BAA1720 MRSA; experiment: microbe, parasite or virus in culture; format: cell-based, Staphylococcus aureus; details: MIC wells diluted in fresh MHB, 24 h, 37 °C
# Experimental: as §1, §2
# S. aureus ATCC 29213 [9] = experiment: Checkerboard synergy test; format: cell-based, Staphylococcus aureus; details: MIC not determined, tested range up to 128 μM
# Experimental: The synergy between the compounds was assessed using the checkerboard method in a similar way as mentioned in our previous study.[79],[80] Bacteria were first cultured overnight in 2 mL of LB (VWR Chemicals) at 37 °C with shaking. Next, 20 μL of overnight culture was transferred into 2 mL of MHB medium and further cultured at 37 °C with shaking until the culture reached OD600 = 0.3. Subsequently, culture was diluted 1:200 in a fresh MHB medium, and aliquots of 90 μL were mixed with 10 μL of previously prepared dilutions of tested compounds in MHB on a transparent flat-bottom 96-well plate (Nest). The plate was then sealed with transparent adhesive foil (Titer-Tops) and incubated for 20 h, at 37 °C with shaking. Following incubation, optical density at 600 nm was measured using the Tecan Sunrise plate reader. Growth inhibition was determined by comparing the given sample with untreated culture (GC) with MHB alone (SC) as an additional reference. The FIC index was calculated for the first cell within each row and column where growth inhibition was observed. The following formula was used [drawing 1] Ca, Cb—concentration of the agent in combination, and MICa, MICb—MICs for agent a and agent b alone.
# Then, the median FIC was determined for the entire checkerboard. In addition, the minimal and maximal values were distinguished (Table 2). […]
# [10] = MIC wells diluted in fresh MHB, read-out: MBC
# [11] = Escherichia coli, read-out: MBC
# [12] = Escherichia coli, WR3551/98, MIC wells diluted in fresh MHB, read-out: MBC
# [13] = Staphylococcus aureus, ATCC29213, MHB
# [14] = Staphylococcus aureus, ATCC29213, MIC wells diluted in fresh MHB, read-out: MBC
Compound,MBC (E. coli K12 MG1655 [1]; read-out: MBC) [µM],MIC (E. coli K12 MG1655 [3]) [µM],MIC (E. coli WR 3551/98 [4]) [µM],MIC (S. aureus ATCC 29213 [5]; MHB) [µM],MIC [6] [µM],MBC (S. aureus ATCC 29213 [7]; [10]) [µM],MBC [8] [µM],MBC (E. coli WR 3551/98 [2]; [10]) [µM],further results
CC[C@H](C)[C@H](NC(=O)[C@H](CCCNC(=N)N)NC(=O)[C@H](CCCCN)NC(=O)[C@H](CC(C)C)NC(=O)[C@H](CC(C)C)NC(=O)CNC(=O)CCCCCCCCc1cn(C[C@H]2O[C@H](O[C@@H]3[C@@H](O)[C@H](O[C@H]4O[C@H](CN)[C@@H](O)[C@H](O)[C@H]4O)[C@@H](N)C[C@H]3NC(=O)[C@@H](O)CCN)[C@H](O)[C@@H](N)[C@@H]2O)nn1)C(=O)N[C@@H](CCCCN)C(=O)N[C@H](C(=O)N[C@@H](CC(C)C)C(=O)N[C@@H](CC(C)C)C(N)=O)[C@@H](C)O [AMK-anoplin] (HELM PEPTIDE1{[NCC[C@H](O)C(=O)N[C@@H]1C[C@H](N)[C@@H](O[C@H]2O[C@H](CN)[C@@H](O)[C@H](O)[C@H]2O)[C@H](O)[C@H]1O[C@H]1O[C@H](Cn2cc(CCCCCCCCC(=O)[*:2])nn2)[C@@H](O)[C@H](N)[C@H]1O].G.L.L.K.R.I.K.T.L.L.[am]}$$$$V2.0),16,16,16,32,>32,>32,>32,–,MBC (E. coli WR 3551/98 [2]; MIC wells diluted in fresh MHB): 16 to 32 µM
CC[C@H](C)[C@H](NC(=O)[C@H](CCCNC(=N)N)NC(=O)[C@H](CCCCN)NC(=O)[C@H](CC(C)C)NC(=O)[C@H](CC(C)C)NC(=O)CNC(=O)[C@@H](N)CSSC[C@H]1O[C@@H](O[C@@H]2[C@@H](O)[C@H](N)C[C@H](N)[C@H]2O[C@H]2O[C@H](CN)[C@@H](O)[C@H](O)[C@H]2N)[C@H](O)[C@@H]1O[C@H]1O[C@@H](CN)[C@@H](O)[C@H](O)[C@H]1N)C(=O)N[C@@H](CCCCN)C(=O)N[C@H](C(=O)N[C@@H](CC(C)C)C(=O)N[C@@H](CC(C)C)C(N)=O)[C@@H](C)O [NEO-SS-anoplin] (H-C(X2)GLLKRIKTLL-NH2),8,8,8,4,>32,8,>32,16,–
CC[C@H](C)[C@H](NC(=O)[C@H](CCCNC(=N)N)NC(=O)[C@H](CCCCN)NC(=O)[C@H](CC(C)C)NC(=O)[C@H](CC(C)C)NC(=O)CNC(=O)CCCCCCCCc1cn(C[C@H]2O[C@@H](O[C@@H]3[C@@H](O)[C@H](N)C[C@H](N)[C@H]3O[C@H]3O[C@H](CN)[C@@H](O)[C@H](O)[C@H]3N)[C@H](O)[C@@H]2O[C@H]2O[C@@H](CN)[C@@H](O)[C@H](O)[C@H]2N)nn1)C(=O)N[C@@H](CCCCN)C(=O)N[C@H](C(=O)N[C@@H](CC(C)C)C(=O)N[C@@H](CC(C)C)C(N)=O)[C@@H](C)O [NEO-anoplin] (HELM PEPTIDE1{[NC[C@@H]1O[C@H](O[C@H]2[C@@H](O)[C@H](O[C@@H]3[C@@H](O)[C@H](N)C[C@H](N)[C@H]3O[C@H]3O[C@H](CN)[C@@H](O)[C@H](O)[C@H]3N)O[C@@H]2Cn2cc(CCCCCCCCC(=O)[*:2])nn2)[C@H](N)[C@@H](O)[C@@H]1O].G.L.L.K.R.I.K.T.L.L.[am]}$$$$V2.0),–,8,16,16,32,–,32,16,MBC (E. coli K12 MG1655 [1]): 8 to 16 µM; MBC (S. aureus ATCC 29213 [7]; MIC wells diluted in fresh MHB): 16 to 32 µM
"NCC[C@H](O)C(=O)N[C@@H]1C[C@H](N)[C@@H](O[C@H]2O[C@H](CN)[C@@H](O)[C@H](O)[C@H]2O)[C@H](O)[C@H]1O[C@H]1O[C@H](CO)[C@@H](O)[C@H](N)[C@H]1O [amikacin (AMK), amikacin, reference compound]",–,–,>32,–,–,–,–,–,"MBC (E. coli K12 MG1655 [1]; [11]): 8 to 16 µM; MBC (E. coli WR 3551/98 [2]; [12]): > 32 µM; MIC (E. coli K12 MG1655 [3]; Escherichia coli): 4 µM; MIC (E. coli WR 3551/98 [4]; Escherichia coli, WR3551/98): > 32 µM; MIC (S. aureus ATCC 29213 [5]; [13]): 8 µM; MIC ([6]; Staphylococcus aureus): 32 µM; MBC (S. aureus ATCC 29213 [7]; [14]): 8 µM; MBC ([8]; Staphylococcus aureus): ≥ 32 µM"
"CC[C@H](C)[C@H](NC(=O)[C@H](CCCNC(=N)N)NC(=O)[C@H](CCCCN)NC(=O)[C@H](CC(C)C)NC(=O)[C@H](CC(C)C)NC(=O)CNC(=O)[C@@H](N)CSSC[C@H](N)C(=O)NCC(=O)N[C@@H](CC(C)C)C(=O)N[C@@H](CC(C)C)C(=O)N[C@@H](CCCCN)C(=O)N[C@@H](CCCNC(=N)N)C(=O)N[C@H](C(=O)N[C@@H](CCCCN)C(=O)N[C@H](C(=O)N[C@@H](CC(C)C)C(=O)N[C@@H](CC(C)C)C(N)=O)[C@@H](C)O)[C@@H](C)CC)C(=O)N[C@@H](CCCCN)C(=O)N[C@H](C(=O)N[C@@H](CC(C)C)C(=O)N[C@@H](CC(C)C)C(N)=O)[C@@H](C)O [anoplin-SS-anoplin] (HELM PEPTIDE1{C.G.L.L.K.R.I.K.T.L.L.[am]}|PEPTIDE2{C.G.L.L.K.R.I.K.T.L.L.[am]}$PEPTIDE1,PEPTIDE2,1:R3-1:R3$$$V2.0)",8,4,1,16,16,32,32,2,MIC enhancement compared to anoplin monomer (E. coli WR 3551/98 [4]; E. coli WR 3551/98): 32 fold
"NC[C@@H]1O[C@H](O[C@H]2[C@@H](O)[C@H](O[C@@H]3[C@@H](O)[C@H](N)C[C@H](N)[C@H]3O[C@H]3O[C@H](CN)[C@@H](O)[C@H](O)[C@H]3N)O[C@@H]2CO)[C@H](N)[C@@H](O)[C@@H]1O [neomycin (NEO), neomycin, reference compound]",–,–,–,–,–,–,–,–,"MBC (E. coli K12 MG1655 [1]; [11]): 4 µM; MBC (E. coli WR 3551/98 [2]; [12]): 8 µM; MIC (E. coli K12 MG1655 [3]; Escherichia coli): 4 µM; MIC (E. coli WR 3551/98 [4]; Escherichia coli, WR3551/98): 4 µM; MIC (S. aureus ATCC 29213 [5]; [13]): 1 µM; MIC ([6]; Staphylococcus aureus): > 32 µM; MBC (S. aureus ATCC 29213 [7]; [14]): 2 µM; MBC ([8]; Staphylococcus aureus): > 32 µM"
"GLLKRIKTLL-NH2 (C-terminus assumed) [anoplin, reference compound]",≥32,–,>32,>32,>32,>32,>32,>32,growth inhibition concentration threshold (S. aureus ATCC 29213 [9]): higher than 128 μM
